Test results: patent publication US20060100224A1, “Piperidine ouracil used as a medicament for treating bacterial infections” (priority 2002, published 2006)

Target: T1, Pol III from S. aureus (PolC) (Staphylococcus aureus, UniProt P0C1P9)
T1 construct: His tag (pET15b) (N); made in house; host or cells: E. coli BL21(DE3)
T1 sequence (P0C1P9 1-1435): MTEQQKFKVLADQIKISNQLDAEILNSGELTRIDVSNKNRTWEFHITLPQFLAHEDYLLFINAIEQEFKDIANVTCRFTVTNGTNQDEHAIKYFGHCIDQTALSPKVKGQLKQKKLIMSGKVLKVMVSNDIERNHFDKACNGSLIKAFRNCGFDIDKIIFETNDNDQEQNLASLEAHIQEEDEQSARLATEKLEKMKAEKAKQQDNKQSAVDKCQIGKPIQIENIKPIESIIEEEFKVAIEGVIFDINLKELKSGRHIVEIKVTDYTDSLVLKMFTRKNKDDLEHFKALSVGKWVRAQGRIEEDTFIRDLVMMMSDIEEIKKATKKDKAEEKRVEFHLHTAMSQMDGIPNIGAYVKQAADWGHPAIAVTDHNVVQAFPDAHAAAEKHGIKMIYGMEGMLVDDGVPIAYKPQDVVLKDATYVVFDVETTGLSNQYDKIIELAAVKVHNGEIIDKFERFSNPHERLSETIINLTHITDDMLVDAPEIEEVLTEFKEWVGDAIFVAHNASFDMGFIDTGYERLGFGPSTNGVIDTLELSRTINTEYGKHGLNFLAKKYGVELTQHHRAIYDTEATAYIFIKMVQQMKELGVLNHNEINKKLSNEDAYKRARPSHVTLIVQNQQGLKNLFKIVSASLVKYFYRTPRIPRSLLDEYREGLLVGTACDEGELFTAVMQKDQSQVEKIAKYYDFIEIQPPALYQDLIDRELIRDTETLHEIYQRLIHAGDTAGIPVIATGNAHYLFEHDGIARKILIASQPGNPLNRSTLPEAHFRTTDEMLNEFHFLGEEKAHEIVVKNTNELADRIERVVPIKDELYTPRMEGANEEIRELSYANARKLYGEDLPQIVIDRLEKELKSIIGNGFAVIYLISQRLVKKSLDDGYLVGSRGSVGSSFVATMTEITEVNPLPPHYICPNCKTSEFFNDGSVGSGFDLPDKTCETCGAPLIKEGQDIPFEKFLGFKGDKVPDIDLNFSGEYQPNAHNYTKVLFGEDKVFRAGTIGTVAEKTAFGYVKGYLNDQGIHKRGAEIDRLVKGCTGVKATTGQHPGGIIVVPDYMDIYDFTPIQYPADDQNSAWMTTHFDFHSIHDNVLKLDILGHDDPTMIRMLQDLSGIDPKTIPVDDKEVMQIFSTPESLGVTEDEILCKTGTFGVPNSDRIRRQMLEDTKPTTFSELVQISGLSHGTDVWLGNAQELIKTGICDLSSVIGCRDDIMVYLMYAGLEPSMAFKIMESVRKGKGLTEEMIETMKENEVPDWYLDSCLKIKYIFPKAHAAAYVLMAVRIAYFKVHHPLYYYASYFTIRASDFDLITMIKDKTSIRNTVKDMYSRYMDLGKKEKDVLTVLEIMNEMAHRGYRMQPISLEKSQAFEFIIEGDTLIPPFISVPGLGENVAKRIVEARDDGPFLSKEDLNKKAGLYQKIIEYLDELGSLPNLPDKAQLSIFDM
Assay: Determination of the IC50 for Polymerase III (PolC, luciferase-coupled pyrophosphate detection)
Type: biochemical
Conditions: purified PolC ~2 nM, 30° C., 30 min, activated calf thymus DNA
Excerpt: Cloning, Expression and Purification of Pol III from S. aureus
To clone polC with an N-terminal His tag, the structural gene polC is amplified from S. aureus genomic DNA with the aid of PCR. The primers SAPol 31 5′-[…]-3′ and SAPolrev 5′-[…]-3′ are used to introduce the NdeI and BamHI restriction cleavage sites respectively in front of and behind the amplified gene. After the PCR product which is 4300 bp in size has been digested with NdeI and BamHI, it is ligated into the vector pET15b (Novagen, USA), which has likewise been digested with NdeI and BamHI, and transformed into E. coli XL-1 Blue.
After transformation into E. coli BL21(DE3), the cells are cultivated for expression of PolC at 30° C. in LB medium with 100 μg/ml ampicillin until the OD595 nm is 0.5, cooled to 18° C. and, after addition of 1 mM IPTG, incubated for a further 20 hours. The cells are harvested by centrifugation, washed once in PBS with 1 mM PMSF and taken up in 50 mM NaH2PO4 pH 8.0, 10 mM imidazole, 2 mM β-mercaptoethanol, 1 mM PMSF, 20% glycerol. The cells are disrupted using a French press at 12,000 psi, the cell detritus is removed by centrifugation ([…]×g, 120 min, 4° C.) and the supernatant is stirred with an appropriate amount of Ni-NTA-agarose (from Quiagen, Germany) at 4° C. for 1 hour. After the gel matrix has been packed into a column it is washed with 50 mM NaH2PO4 pH 8.0, 2 mM β-mercaptoethanol, 20 mM imidazole, 10% glycerol, and the purified protein is then eluted with the same buffer containing 100 mM imidazole. The purified protein is mixed with 50% glycerol and stored at −20° C.
Determination of the IC50 for Polymerase III
The activity of PolC is measured in an enzymatically coupled reaction, with the pyrophosphate formed during the polymerization being converted with the aid of ATP sulfurylase into ATP, which is detected using firefly luciferase. The reaction mixture contains, in a final volume of 50 μl, 50 mM Tris/Cl pH 7.5; 5 mM DTT, 10 mM MgCl2, 30 mM NaCl, 0.1 mg/ml BSA, 10% glycerol, 20 μM each dATP, dTTP, dCTP, 2U/ml activated calf thymus DNA (from Worthington, USA), 20 μM APS and 0.06 mM luciferin. The reaction is started by adding purified PolC in a final concentration of ˜2 nM and is incubated at 30° C. for 30 min. The amount of pyrophosphate formed is then converted into ATP by adding ATP sulfurylase (Sigma, USA) in a final concentration of 5 nM and incubating at 30° C. for 15 min. After addition of 0.2 nM firefly luciferase, the luminescence is measured in a luminometer for 60 s. The IC50 is reported as the concentration of an inhibitor which leads to 50% inhibition of the enzymic activity of PolC.

SMILES | IC50
O=C(c1cccnc1)N1CCCC(Cn2c(=O)cc(Nc3ccc4c(c3)CCC4)[nH]c2=O)C1 (stereo not drawn) [Example 26] | 220 nM
Cc1nnsc1-c1nc(C(=O)N2CCC(Cn3c(=O)cc(Nc4ccc5c(c4)CCC5)[nH]c3=O)CC2)cs1 [Example 21] | 110 nM
CCc1cc(Nc2cc(=O)n(CC3CCN(C(=O)c4ccno4)CC3)c(=O)[nH]2)ccc1C [Example 9] | 140 nM
O=C(c1nc[nH]n1)N1CCCC(Cn2c(=O)cc(Nc3ccc4c(c3)CCC4)[nH]c2=O)C1 (stereo not drawn) [Example 17] | 340 nM
O=C(c1csnn1)N1CCC(Cn2c(=O)cc(Nc3ccc4c(c3)CCC4)[nH]c2=O)CC1 [Example 13] | 90 nM
Cc1ccoc1C(=O)N1CCCC(Cn2c(=O)cc(Nc3ccc4c(c3)CCC4)[nH]c2=O)C1 (stereo not drawn) [Example 39] | 330 nM
